Results reported in ChEMBL document CHEMBL1649226, “Species identification and antifungal susceptibility patterns of species belonging to Aspergillus section Nigri” (2009).
≈ marks a conversion by molar mass, not a printed value.

Tests used:
Format in all cases: functional
Aspergillus tubingensis [1] = test: Antifungal activity against Aspergillus tubingensis isolate CM-3654 obtained from blood culture after 48 hrs by EUCAST broth dilution method; conditions: isolate CM-3654, 48 h
Aspergillus tubingensis [2] = test: Antifungal activity against Aspergillus tubingensis isolate CM-3810 obtained from respiratory tract infection of patient after 48 hrs by EUCAST broth dilution method; conditions: isolate CM-3810, 48 h
Aspergillus tubingensis [3] = test: Antifungal activity against Aspergillus tubingensis isolate CM-5094 obtained from respiratory tract infection of patient after 48 hrs by EUCAST broth dilution method; conditions: isolate CM-5094, 48 h
Aspergillus tubingensis [4] = test: Antifungal activity against Aspergillus tubingensis isolate CM-3177 obtained from respiratory tract infection of patient after 48 hrs by EUCAST broth dilution method; conditions: isolate CM-3177, 48 h
Aspergillus tubingensis [5] = test: Antifungal activity against Aspergillus tubingensis isolate CM-3125 obtained from respiratory tract infection of patient after 48 hrs by EUCAST broth dilution method; conditions: isolate CM-3125, 48 h
Aspergillus niger [6] = test: Antifungal activity against Aspergillus niger isolate CM-3257 obtained from respiratory tract infection of patient after 48 hrs by EUCAST broth dilution method; conditions: isolate CM-3257, 48 h
Aspergillus niger [7] = test: Antifungal activity against Aspergillus niger isolate CM-4316 obtained from respiratory tract infection of patient after 48 hrs by EUCAST broth dilution method; conditions: isolate CM-4316, 48 h
Aspergillus tubingensis [8] = test: Antifungal activity against Aspergillus tubingensis isolate CM-4897 obtained from blood culture after 48 hrs by EUCAST broth dilution method; conditions: isolate CM-4897, 48 h
Aspergillus tubingensis [9] = test: Antifungal activity against Aspergillus tubingensis isolate CM-4352 obtained from respiratory tract infection of patient after 48 hrs by EUCAST broth dilution method; conditions: isolate CM-4352, 48 h
Aspergillus niger [10] = test: Antifungal activity against Aspergillus niger isolate CM-4262 after 48 hrs by EUCAST broth dilution method Ophthalmic; conditions: isolate CM-4262, 48 h
Aspergillus tubingensis [11] = test: Antifungal activity against Aspergillus tubingensis isolate CM-4264 obtained from blood culture after 48 hrs by EUCAST broth dilution method; conditions: isolate CM-4264, 48 h
Aspergillus tubingensis [12] = test: Antifungal activity against Aspergillus tubingensis isolate CM-4005 after 48 hrs by EUCAST broth dilution method; conditions: isolate CM-4005, 48 h
Aspergillus foetidus [13] = test: Antifungal activity against Aspergillus foetidus isolate CM-4995 obtained from prosthesis after 48 hrs by EUCAST broth dilution method; conditions: isolate CM-4995, 48 h
Aspergillus niger [14] = test: Antifungal activity against Aspergillus niger isolate CM-5095 obtained from respiratory tract infection of patient after 48 hrs by EUCAST broth dilution method; conditions: isolate CM-5095, 48 h
Aspergillus tubingensis [15] = test: Antifungal activity against Aspergillus tubingensis isolate CM-4001 after 48 hrs by EUCAST broth dilution method; conditions: isolate CM-4001, 48 h
Aspergillus tubingensis [16] = test: Antifungal activity against Aspergillus tubingensis isolate CM-4000 after 48 hrs by EUCAST broth dilution method; conditions: isolate CM-4000, 48 h
Aspergillus niger [17] = test: Antifungal activity against Aspergillus niger isolate CM-3641 obtained from respiratory tract infection of patient after 48 hrs by EUCAST broth dilution method; conditions: isolate CM-3641, 48 h
Aspergillus tubingensis [18] = test: Antifungal activity against Aspergillus tubingensis isolate CM-3585 after 48 hrs by EUCAST broth dilution method; conditions: isolate CM-3585, 48 h
Aspergillus tubingensis [19] = test: Antifungal activity against Aspergillus tubingensis isolate CM-4688 obtained from respiratory tract infection of patient after 48 hrs by EUCAST broth dilution method; conditions: isolate CM-4688, 48 h
Aspergillus tubingensis [20] = test: Antifungal activity against Aspergillus tubingensis isolate CM-4003 after 48 hrs by EUCAST broth dilution method; conditions: isolate CM-4003, 48 h
Aspergillus niger [21] = test: Antifungal activity against Aspergillus niger isolate CM-3636 obtained from respiratory tract infection of patient after 48 hrs by EUCAST broth dilution method; conditions: isolate CM-3636, 48 h
Aspergillus niger [22] = test: Antifungal activity against Aspergillus niger isolate CM-4004 obtained from after 48 hrs by EUCAST broth dilution method; conditions: isolate CM-4004, 48 h
Aspergillus niger [23] = test: Antifungal activity against Aspergillus niger isolate CM-3236 obtained from respiratory tract infection of patient after 48 hrs by EUCAST broth dilution method; conditions: isolate CM-3236, 48 h
Aspergillus foetidus [24] = test: Antifungal activity against Aspergillus foetidus isolate CM-5264 obtained from respiratory tract infection of patient after 48 hrs by EUCAST broth dilution method; conditions: isolate CM-5264, 48 h
Aspergillus tubingensis [25] = test: Antifungal activity against Aspergillus tubingensis isolate CM-4296 obtained from respiratory tract infection of patient after 48 hrs by EUCAST broth dilution method; conditions: isolate CM-4296, 48 h
Aspergillus tubingensis [26] = test: Antifungal activity against Aspergillus tubingensis isolate CM-3123 obtained from respiratory tract infection of patient after 48 hrs by EUCAST broth dilution method; conditions: isolate CM-3123, 48 h
Aspergillus niger [27] = test: Antifungal activity against Aspergillus niger isolate CM-3551 obtained from respiratory tract infection of patient after 48 hrs by EUCAST broth dilution method; conditions: isolate CM-3551, 48 h
Aspergillus tubingensis [28] = test: Antifungal activity against Aspergillus tubingensis isolate CM-4899 obtained from respiratory tract infection of patient after 48 hrs by EUCAST broth dilution method; conditions: isolate CM-4899, 48 h
Aspergillus tubingensis [29] = test: Antifungal activity against Aspergillus tubingensis isolate CM-3507 obtained from respiratory tract infection of patient after 48 hrs by EUCAST broth dilution method; conditions: isolate CM-3507, 48 h
Aspergillus foetidus [30] = test: Antifungal activity against Aspergillus foetidus isolate CM-4002 after 48 hrs by EUCAST broth dilution method; conditions: isolate CM-4002, 48 h
Aspergillus niger [31] = test: Antifungal activity against Aspergillus niger isolate CM-3672 obtained from cutaneous layer of patient after 48 hrs by EUCAST broth dilution method; conditions: isolate CM-3672, 48 h
Aspergillus niger [32] = test: Antifungal activity against Aspergillus niger isolate CM-3586 obtained from catheter of patient after 48 hrs by EUCAST broth dilution method; conditions: isolate CM-3586, 48 h
Aspergillus niger [33] = test: Antifungal activity against Aspergillus niger isolate CM-3506 obtained from respiratory tract infection of patient after 48 hrs by EUCAST broth dilution method; conditions: isolate CM-3506, 48 h
Aspergillus niger [34] = test: Antifungal activity against Aspergillus niger isolate CM-4213 obtained from respiratory tract infection of patient after 48 hrs by EUCAST broth dilution method; conditions: isolate CM-4213, 48 h

Structure (SMILES) | MIC (Aspergillus tubingensis [1]) [µg/mL] | MIC (Aspergillus tubingensis [2]) [µg/mL] | MIC (Aspergillus tubingensis [3]) [µg/mL] | MIC (Aspergillus tubingensis [4]) [µg/mL] | MIC (Aspergillus tubingensis [5]) [µg/mL] | MIC (Aspergillus niger [6]) [µg/mL] | MIC (Aspergillus niger [7]) [µg/mL] | MIC (Aspergillus tubingensis [8]) [µg/mL] | MIC (Aspergillus tubingensis [9]) [µg/mL] | MIC (Aspergillus niger [10]) [µg/mL] | MIC (Aspergillus tubingensis [11]) [µg/mL] | MIC (Aspergillus tubingensis [12]) [µg/mL] | MIC (Aspergillus foetidus [13]) [µg/mL] | MIC (Aspergillus niger [14]) [µg/mL] | MIC (Aspergillus tubingensis [15]) [µg/mL] | MIC (Aspergillus tubingensis [16]) [µg/mL] | MIC (Aspergillus niger [17]) [µg/mL] | MIC (Aspergillus tubingensis [18]) [µg/mL] | MIC (Aspergillus tubingensis [19]) [µg/mL] | MIC (Aspergillus tubingensis [20]) [µg/mL] | also measured
CN(C/C=C/C#CC(C)(C)C)Cc1cccc2ccccc12 [TERBINAFINE] | 0.63 (≈ 2.16 µM) | 1 (≈ 3.43 µM) | 0.62 (≈ 2.13 µM) | 0.67 (≈ 2.3 µM) | 0.5 (≈ 1.72 µM) | 1 (≈ 3.43 µM) | 0.5 (≈ 1.72 µM) | 0.42 (≈ 1.44 µM) | 0.31 (≈ 1.06 µM) | 0.29 (≈ 0.995 µM) | 0.5 (≈ 1.72 µM) | 0.25 (≈ 0.858 µM) | 0.33 (≈ 1.13 µM) | 0.62 (≈ 2.13 µM) | 0.56 (≈ 1.92 µM) | 0.33 (≈ 1.13 µM) | 0.25 (≈ 0.858 µM) | 0.42 (≈ 1.44 µM) | 1.5 (≈ 5.15 µM) | 1 (≈ 3.43 µM) | MIC (Aspergillus niger [21]): 1 µg/mL (≈ 3.43 µM); MIC (Aspergillus niger [22]): 0.13 µg/mL (≈ 0.446 µM); MIC (Aspergillus niger [23]): 1 µg/mL (≈ 3.43 µM); MIC (Aspergillus foetidus [24]): 0.5 µg/mL (≈ 1.72 µM); MIC (Aspergillus tubingensis [25]): 0.62 µg/mL (≈ 2.13 µM); MIC (Aspergillus tubingensis [26]): 1.17 µg/mL (≈ 4.01 µM); MIC (Aspergillus niger [27]): 0.25 µg/mL (≈ 0.858 µM); MIC (Aspergillus tubingensis [28]): 0.33 µg/mL (≈ 1.13 µM); MIC (Aspergillus tubingensis [29]): 0.62 µg/mL (≈ 2.13 µM); MIC (Aspergillus foetidus [30]): 0.33 µg/mL (≈ 1.13 µM); MIC (Aspergillus niger [31]): 0.07 µg/mL (≈ 0.24 µM); MIC (Aspergillus niger [32]): 0.12 µg/mL (≈ 0.412 µM); MIC (Aspergillus niger [33]): 0.31 µg/mL (≈ 1.06 µM); MIC (Aspergillus niger [34]): 0.22 µg/mL (≈ 0.755 µM)
C[C@@H](c1ncncc1F)[C@](O)(Cn1cncn1)c1ccc(F)cc1F [VORICONAZOLE] | 2 (≈ 5.73 µM) | 2 (≈ 5.73 µM) | 0.75 (≈ 2.15 µM) | 2 (≈ 5.73 µM) | 1 (≈ 2.86 µM) | 1 (≈ 2.86 µM) | 0.5 (≈ 1.43 µM) | 2 (≈ 5.73 µM) | 0.88 (≈ 2.52 µM) | 2 (≈ 5.73 µM) | 1 (≈ 2.86 µM) | 2 (≈ 5.73 µM) | 2 (≈ 5.73 µM) | 0.75 (≈ 2.15 µM) | 1.75 (≈ 5.01 µM) | 2 (≈ 5.73 µM) | 1 (≈ 2.86 µM) | 1 (≈ 2.86 µM) | 2 (≈ 5.73 µM) | 2 (≈ 5.73 µM) | MIC (Aspergillus niger [21]): 0.5 µg/mL (≈ 1.43 µM); MIC (Aspergillus niger [22]): 1 µg/mL (≈ 2.86 µM); MIC (Aspergillus niger [23]): 0.5 µg/mL (≈ 1.43 µM); MIC (Aspergillus foetidus [24]): 2 µg/mL (≈ 5.73 µM); MIC (Aspergillus tubingensis [25]): 1 µg/mL (≈ 2.86 µM); MIC (Aspergillus tubingensis [26]): 1.67 µg/mL (≈ 4.78 µM); MIC (Aspergillus niger [27]): 1 µg/mL (≈ 2.86 µM); MIC (Aspergillus tubingensis [28]): 2 µg/mL (≈ 5.73 µM); MIC (Aspergillus tubingensis [29]): 1 µg/mL (≈ 2.86 µM); MIC (Aspergillus foetidus [30]): 2 µg/mL (≈ 5.73 µM); MIC (Aspergillus niger [31]): 1 µg/mL (≈ 2.86 µM); MIC (Aspergillus niger [32]): 1 µg/mL (≈ 2.86 µM); MIC (Aspergillus niger [33]): 0.75 µg/mL (≈ 2.15 µM); MIC (Aspergillus niger [34]): 0.33 µg/mL (≈ 0.945 µM)
